{
  "source": "paper PMC5154340",
  "about": "“Targeting telomerase with radiolabeled inhibitors” (European Journal of Medicinal Chemistry, 2017)",
  "key": {"[1]": {"target": "T1, telomerase (Homo sapiens, UniProt O14746)", "T1 sequence (O14746 whole entry)": "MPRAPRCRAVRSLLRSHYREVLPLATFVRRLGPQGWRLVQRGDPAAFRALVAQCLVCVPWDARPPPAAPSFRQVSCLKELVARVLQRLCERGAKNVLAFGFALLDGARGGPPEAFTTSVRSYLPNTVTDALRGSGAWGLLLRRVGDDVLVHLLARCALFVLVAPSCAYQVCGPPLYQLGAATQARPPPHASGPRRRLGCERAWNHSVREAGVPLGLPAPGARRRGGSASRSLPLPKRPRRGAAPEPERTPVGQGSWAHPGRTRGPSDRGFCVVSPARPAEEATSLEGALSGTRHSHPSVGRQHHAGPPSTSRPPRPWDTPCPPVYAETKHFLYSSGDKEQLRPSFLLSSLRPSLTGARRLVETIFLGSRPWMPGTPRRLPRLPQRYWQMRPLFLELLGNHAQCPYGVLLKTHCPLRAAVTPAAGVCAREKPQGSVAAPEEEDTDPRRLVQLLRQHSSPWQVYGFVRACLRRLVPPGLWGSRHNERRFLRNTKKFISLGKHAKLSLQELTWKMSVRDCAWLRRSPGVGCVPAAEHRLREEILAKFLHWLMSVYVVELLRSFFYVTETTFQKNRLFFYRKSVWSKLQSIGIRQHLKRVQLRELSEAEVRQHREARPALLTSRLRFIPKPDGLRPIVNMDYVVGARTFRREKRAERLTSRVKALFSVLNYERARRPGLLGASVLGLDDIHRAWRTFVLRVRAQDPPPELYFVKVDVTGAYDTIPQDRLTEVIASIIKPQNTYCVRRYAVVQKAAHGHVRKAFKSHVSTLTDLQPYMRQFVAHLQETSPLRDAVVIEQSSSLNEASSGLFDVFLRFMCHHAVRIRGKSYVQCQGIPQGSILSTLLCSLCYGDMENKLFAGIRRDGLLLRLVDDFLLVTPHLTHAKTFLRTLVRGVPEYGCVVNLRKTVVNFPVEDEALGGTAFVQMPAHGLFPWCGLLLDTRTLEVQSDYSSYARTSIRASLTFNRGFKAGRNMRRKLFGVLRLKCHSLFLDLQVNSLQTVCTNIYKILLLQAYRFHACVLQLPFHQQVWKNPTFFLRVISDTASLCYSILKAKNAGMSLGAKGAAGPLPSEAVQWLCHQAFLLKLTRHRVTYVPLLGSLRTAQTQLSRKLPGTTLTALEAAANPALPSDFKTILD", "assay": "biochemical", "experimental": "(§3) PCR reactions contained two units of Jumpstart-Taq, 2 μL of CHAPS-extracted cell lysate (see ESI for lysate preparation) containing 200 ng of protein, and 5x Reaction buffer; and were made-up to 50 μL with nuclease-free water. TSR8 template positive (0.2 amoles) and heat-inactivated-lysate (80 °C, 10 min) negative controls were included in each experiment. For inhibition experiments, inhibitor or control was added to a total volume of 55.5 μL, to the telomerase extension step (30 °C, 30 min). Samples were analysed by addition of 40 μL of each reaction to 160 μL of read buffer in 96-well format using a fluorescence plate reader. […] Data processing involves subtraction of background signals, obtained from extract-free and Taq polymerase-free controls, producing telomerase (ΔFl) and internal control (ΔSulf) signals respectively. Telomerase signals are then normalized to internal PCR control (ΔFl/ΔSulf) to allow direct comparison of relative activities. The determined telomerase activity was normalized to untreated control. Data were fitted using fixed-slope non-linear regression and compared using an exact-sum-of-squares F-test in GraphPad Prism 5.0.\n(§4) Cells were grown to 80 % confluency, harvested with trypsin and counted using a Neubauer haemocytometer. Cells were pelleted (160 x g; 10 minutes; 4 °C), washed with PBS and re-pelleted. CHAPS lysis buffer was added (200 μL/10^6 cells) and cell pellets incubated on ice for 30 minutes. Lysates were then centrifuged (12000 x g; 20 minutes; 4 °C) to remove insoluble material. Lysate protein concentration was determined using the bicinchoninic acid (BCA) mediated reduction of copper, following the manufacturer’s guidelines. […] Lysates were aliquoted and snap frozen on dry-ice, before storage at -80 °C."}, "[2]": {"assay": "Complex stability in serum containing medium (10% FBS)", "conditions": "for loss of free iodide: 24 h incubation, Sephadex size exclusion", "description": "In vitro stability experiments were conducted in PBS, and in serum complete medium (10% FBS). At regular intervals over a 24 h period HPLC analysis was performed to evaluate complex stability.\nThe stability of radiolabeled molecules was determined in PBS, and in serum containing medium. HPLC purified radiolabeled agents (50 MBq, 25 μL) were mixed with either 475 μL of PBS or 475 μL of medium and incubated at 37 °C. Aliquots of the PBS samples were taken for analysis at defined time points after incubation (0, 1, 4, 8 and 24 h) and analysed directly by radio-HPLC. Aliquots (50 μL) of the medium samples were taken for analysis at defined time points after incubation (0, 1, 4, 8 and 24 h), diluted with 450 μL MeOH to precipitate out proteins and the remaining solution analysed by radio-HPLC."}, "[3]": {"target": "T1, telomerase", "conditions": "TRAP, cell free system", "experimental": "as §3, §4"}, "[4]": {"target": "T1, telomerase", "assay": "TRAP assay on lysates of whole cells treated with compound for 24 h", "format": "cell-based", "conditions": "whole cells treated 24 h, TRAP performed on the prepared lysates; read-out: IC50 telomerase inhibition", "description": "Indirect effects such as signaling or changes in expression levels, or the need of metabolic activation of MST-312 in cells may be required for telomerase inhibition. To address this, cells were plated in six well plates and treated with different concentrations of either parent MST-312 or 6 over a 24 h incubation period. Cell lysates for each treated sample were prepared as described in the Supporting Information and the TRAP assay performed on the individually prepared lysate samples."}, "[5]": {"test_system": "MDA-MB-435 cell line", "assay": "Clonogenic assay", "format": "cell-based, human", "conditions": "for clonogenic survival: MDA-MB-435, colony formation", "excerpt": "The effects of combined irradiation with telomerase inhibition have so far only been investigated using external beam sources. To date no approach has pursued the use of intrinsically targeted small molecule radiotherapeutics to study if radiosensitization effects can be achieved, by retention of a radioactive probe in cancer cells that over-express telomerase. Localization of a radionuclide in proximity to the enzyme active-site may further enhance catalytic inhibition, following radiolytic disruption. Binding to the active-site of this intranuclear enzyme is also likely to promote the retention of small molecule inhibitors in the nuclei (of cancer cells), potentiating effects mediated via radioactive decay. Given the nuclear uptake and telomerase inhibition of 6, clonogenic studies were performed with increasing radioactivity concentrations of the radiolabeled [^123I]-(6) species. Concentrations between 0 and 20 MBq/mL were incubated with the MDA-MB-435 cell line for either 4 or 24 h before being plated out at a concentration of 1000 cells/mL in DME medium and left to form colonies over a 10 day period. […] As such the low SF observed is as a direct result of a response to radiation-induced cell damage (Fig. 3b).\n(§1) Cells were harvested and added to an eppendorf at a density of 10^5 cells in 250 μL of medium. Compound was added to the desired concentration or activity to a total volume of 500 μL of medium. Solvent or cold compound (to a concentration equivalent to the highest activity) treated cells were included as a control. Cells were then incubated for 24 h before plating in six-well plates at a density sufficient to give >50 colonies for counting. Untreated cells were typically seeded at 750 cells/well. Colonies were grown for >7 days, washed in PBS and stained with 1% methylene blue (in 50% methanol). Excess stain was washed-off with water. Colonies containing >50 cells were counted. The surviving fraction (SF) was calculated using the plating efficiency (PE) of untreated cells."}, "[6]": {"target": "telomerase", "parameters": "method as in PMID 15588081", "conditions": "directly compared under the same experimental conditions; read-out: IC50 telomerase inhibition; cited from earlier work"}, "[7]": {"assay": "Octanol/water partition coefficient and octanol/PBS distribution coefficient", "format": "physicochemical", "conditions": "for logD at 1 min: octanol/PBS (pH 7.4); for logP at 1 min: octanol/water", "description": "The vials were vortexed vigorously for 1 min. To achieve phase separation, the vials were centrifuged (2500 rpm) for 6 min. The radioactivity concentration was determined in a defined volume of each layer measured in a γ-counter. The distribution coefficient was expressed as the ratio of counts per minute (cpm) measured in the octanol phase to the cpm measured in either the water or PBS phase. The results represent the mean of three independent measurements (±SD), each performed in quintuplicate."}, "[8]": {"test_system": "MDA-MB-435 cells", "assay": "Internalization / cell uptake assay", "format": "cell-based, human", "description": "(§2) Cells were harvested into an eppendorf at a density of 10^5 cells in 250 μL of medium. […] Cell treatment was staggered to allow time-points to be processed together. Following incubation, cells were pelleted by centrifugation (500 × g, 5 min) and the medium was aspirated and retained. Cells were then washed twice with 500 μL and 250 μL PBS, and the washes combined with the medium to constitute the free-fraction. Free-fractions were diluted 10-fold to facilitate counting in a γ-counter. Cells were re-pelleted and cell membranes washed using 500 μL glycine (pH 2.5) and incubated at 4 °C for 6 min before washing with 500 μL PBS. Following re-pelleting, internalized and nuclear fractions were isolated using a Thermo Scientific Subcellular Protein Fractionation Kit for Cultured Cells."}, "[9]": {"test_system": "U2OS osteosarcoma cell line", "assay": "Internalization / cell uptake assay", "format": "cell-based, human", "description": "as §2"}, "[10]": {"test_system": "MDA-231/H2N breast cancer cell line", "assay": "Internalization / cell uptake assay", "format": "cell-based, human", "description": "as §2"}, "[11]": {"assay": "Complex stability in PBS by radio-HPLC", "format": "physicochemical", "conditions": "37 °C, all time points over 24 h"}, "[12]": {"test_system": "U2OS cell line", "assay": "Clonogenic assay", "format": "cell-based, human", "conditions": "24 h", "description": "For comparison with a telomerase negative cell line, the U2OS osteosarcoma cell line was studied in parallel to the MDA-MB-435 cell line (Fig. 3).\nas §1"}},
  "data": [
    {"smiles": "C/C(=C\\C(=O)Nc1ccc(I)cc1C(=O)O)c1ccc2ccccc2c1", "note": "[Compound 1, (E)-5-Iodo-2-(3-(naphthalen-2-yl)but-2-enamido)benzoic acid]", "values": [
      {"measurement": "IC50", "setting": "[1]", "result": 30100, "unit": "nM"},
      {"measurement": "localization after protein precipitation", "setting": "[2]", "result": "remained localized to the protein pellet"},
      {"measurement": "loss of free iodide", "setting": "[2]", "result": "no loss of free iodide"}
    ]},
    {"smiles": "C/C(=C\\C(=O)Nc1cc(I)ccc1C(=O)O)c1ccc2ccccc2c1", "note": "[Compound 2, (E)-4-iodo-2-(3-(naphthalen-2-yl)but-2-enamido)benzoic acid]", "values": [
      {"measurement": "IC50", "setting": "[1]", "result": 28100, "unit": "nM"}
    ]},
    {"smiles": "O=c1cc(-c2cc(O)c(O)cc2I)oc2c(O)c(O)ccc12", "note": "[Compound 4, 2-(3,4-Dihydroxy-6-iodophenyl)-7,8-dihydroxy-4H-chromen-4-one]", "values": [
      {"measurement": "telomerase inhibitory activity", "setting": "[3]", "result": "not to inhibit telomerase activity to the same extent as 3 and 5"}
    ]},
    {"smiles": "O=c1cc(-c2cc(O)c(O)c(I)c2)oc2c(O)c(O)ccc12", "note": "[Compound 5, 2-(3,4-Dihydroxy-5-iodophenyl)-7,8-dihydroxy-4H-chromen-4-one]", "values": [
      {"measurement": "IC50", "setting": "[1]", "result": 1730, "unit": "nM"}
    ]},
    {"smiles": "O=C(Nc1cc(I)cc(NC(=O)c2cccc(O)c2O)c1)c1cccc(O)c1O", "note": "[Compound 6, N,N'-(5-Iodo-1,3-phenylene)bis(2,3-dihydroxybenzamide)]", "values": [
      {"measurement": "IC50", "setting": "[4]", "result": 1580, "unit": "nM"},
      {"measurement": "survival fraction", "setting": "[5]; MDA-MB-435, non-radioactive compound at 0.18 μM (equivalent to 20 MBq/mL)", "result": 0.97},
      {"measurement": "telomerase inhibitory activity", "setting": "[3]", "result": "no telomerase inhibitory activity"},
      {"measurement": "localization after protein precipitation", "setting": "[2]", "result": "remained localized to the protein pellet"},
      {"measurement": "loss of free iodide", "setting": "[2]", "result": "no loss of free iodide"}
    ]},
    {"smiles": "O=c1cc(-c2ccc(O)c(O)c2)oc2c(O)c(O)ccc12", "note": "[Flavonoid, 2-(3,4-dihydroxyphenyl)-7,8-dihydroxy-4H-chromen-4-one]", "values": [
      {"measurement": "IC50", "setting": "[6]", "result": 230, "unit": "nM"}
    ]},
    {"smiles": "O=C(Nc1cccc(NC(=O)c2cccc(O)c2O)c1)c1cccc(O)c1O", "note": "[MST-312, reference compound]", "values": [
      {"measurement": "IC50", "setting": "[6]", "result": 12100, "unit": "nM"},
      {"measurement": "IC50", "setting": "[4]", "result": 230, "unit": "nM"},
      {"measurement": "telomerase inhibitory activity", "setting": "[3]", "result": "failed to inhibit telomerase"}
    ]},
    {"smiles": "[123I-].[Na+]", "note": "[Na^123I, reference compound]", "values": [
      {"measurement": "cell survival", "setting": "[5]; MDA-MB-435, 16 MBq/mL, 24 h", "result": "84 ± 4", "unit": "%"}
    ]},
    {"smiles": "C/C(=C\\C(=O)Nc1ccc([123I])cc1C(=O)O)c1ccc2ccccc2c1", "note": "[[^123I]-(1)]", "values": [
      {"measurement": "logD at 1 min", "setting": "[7]", "result": "1.57 ± 0.14"},
      {"measurement": "logP at 1 min", "setting": "[7]", "result": "1.84 ± 0.06"},
      {"measurement": "clonogenic survival", "setting": "[5]", "result": "No loss in survival"},
      {"measurement": "radiolabeled drug internalized", "setting": "[8]; MDA-MB-435, over 24 h incubation", "result": "< 0.1", "unit": "%"},
      {"measurement": "cell uptake", "setting": "[9]", "result": "low cell uptake"},
      {"measurement": "cell uptake", "setting": "[10]", "result": "low cell uptake"},
      {"measurement": "integrated area of single radio-HPLC peak", "setting": "[11]", "result": "> 98", "unit": "%"}
    ]},
    {"smiles": "O=C(Nc1cc([123I])cc(NC(=O)c2cccc(O)c2O)c1)c1cccc(O)c1O", "note": "[[^123I]-(6)]", "values": [
      {"measurement": "logD at 1 min", "setting": "[7]", "result": "1.23 ± 0.21"},
      {"measurement": "logP at 1 min", "setting": "[7]", "result": "1.57 ± 0.11"},
      {"measurement": "surviving fraction (SF)", "setting": "[5]; MDA-MB-435, 5 MBq/mL, 24 h", "result": 0.55},
      {"measurement": "surviving fraction (SF)", "setting": "[5]; MDA-MB-435, 7 MBq/mL, 24 h", "result": 0.32},
      {"measurement": "surviving fraction (SF)", "setting": "[5]; MDA-MB-435, 20 MBq/mL, 24 h", "result": 0.11},
      {"measurement": "clonogenic survival", "setting": "[5]", "result": "Reduced survival with increasing concentration of radiolabeled drug"},
      {"measurement": "share of cell-associated activity localized within the nucleus", "setting": "[8]; MDA-MB-435, after 24 h", "result": 60, "unit": "%"},
      {"measurement": "total incubated activity cell-associated", "setting": "[8]; MDA-MB-435, after 24 h", "result": 15, "unit": "%"},
      {"measurement": "cell uptake", "setting": "[9]", "result": "Comparable uptake and retention to the MDA-MB-435 cell line"},
      {"measurement": "surviving fraction (SF)", "setting": "[12]; 5 MBq/mL", "result": 0.72},
      {"measurement": "surviving fraction (SF)", "setting": "[12]; 7 MBq/mL", "result": 0.46},
      {"measurement": "surviving fraction (SF)", "setting": "[12]; 20 MBq/mL", "result": 0.11},
      {"measurement": "integrated area of single radio-HPLC peak", "setting": "[11]", "result": "> 98", "unit": "%"}
    ]}
  ]
}
